# Experimental data published in patent US20220331322A1, “COMPOUND FOR INHIBITING CELL DEATH” (Christian-Albrechts-Universität zu Kiel, priority 2019, published 2022).
# Assays:
# Jurkat cells = experiment: Anti-Fas antibody induced RIPK1-independent apoptosis; assay type: cell-based, human; conditions: 5 ng/ml anti-Fas antibody, 5 h, zVAD 25 μM, primidone 1 mM
# Method: To this end, human T cells (Jurkat cells) were incubated for 5 h at 37° C. in the presence of (a) vehicle, (b) 5 ng/ml anti-Fas antibody, (c) 5 ng/ml anti-Fas antibody in combination with 25 μM of the pan-caspase inhibitor zVAD, and (d) 5 ng/ml anti-Fas antibody in combination with 1 mM primidone. The addition of the anti-Fas antibody induces apoptosis, a caspase-dependent form of regulated cell death that can be inhibited by the addition of the pan-caspase inhibitor zVAD.
# TNF-α-induced complex I = experiment: Immunoprecipitation of TNF-α-induced complex I after TSZ, RIPK1 western blot; assay type: cell-based, human; conditions: U937, TSZ (100 ng/ml Fc-TNF-α + 1 μM SM164 + 25 μM zVAD), 1 mM primidone
# Method: It was tested whether primidone interferes with binding of TNF-α to its corresponding receptor TNFR1. To induce cell death, human U937 cells were treated in the absence (vehicle) or presence of 1 mM primidone with 100 ng/ml Fc-tagged TNF-α+1 μM SMAC mimetic SM164+25 μM zVAD (TSZ) for different time periods, followed by immunopurification of the immunoprecipitated TNF-α-induced complex I using μMACS™ protein A/G microbeads, and western blot analysis using a specific RIPK1 antibody.
# NF-κB = experiment: Western blot of NF-κB activation (p-NF-κB) after TZ stimulation; assay type: cell-based, murine; conditions: L929, 100 ng/ml TNF-α + 25 μM zVAD (TZ), 1 mM primidone
# Method: It was then analyzed whether primidone interferes with the canonical NF-κB signaling pathway which drives the expression of pro-survival molecules. The binding of TNF-α to its corresponding receptor (TNFR1) initially results in the activation of the NF-κB signaling pathway. In this early phase of TNF activation, the cells are protected from cell death by the presence of a membrane-bound complex known as complex I which is formed within seconds after engagement of TNFR1 by TNF-α. This complex induces the expression of pro-survival molecules via activation of the canonical NF-κB pathway. As the default response of most cells to TNF-α is survival and NF-κB-mediated upregulation of pro-survival genes, it was analyzed whether primidone functions in a survival-signaling mode and thus indirectly prevents cell death signaling. For this purpose, murine L929 cells were stimulated at 37° C. for different time periods (as indicated) with 100 ng/ml TNF-α+25 μM zVAD (TZ) in the absence (vehicle) or presence of 1 mM primidone. Subsequently, a Western blot analysis of the cell lysates using a specific p-NF-κB antibody was performed.
# [1] = TNF-α-induced SIRS mouse model; assay type: in vivo; conditions: C57BL/6 mice, 10 mg/kg i.p. 15 min before 1 mg/kg murine TNF-α i.v.
# Method: Hypothermia and morbidity induced by a high dose of TNF-α is considered in the literature to be a model for systemic inflammatory response syndrome (SIRS) (Moerke C, et al. (2019); Newton K, et al. (2014); Duprez L, et al. (2011)). All mice (8 weeks old) used in this experiment were on C57BL/6 background and age-, sex-, and weight-matched. Recombinant carrier-free murine TNF-α was obtained from R&D Systems (Bio-Techne, Wiesbaden, Germany). Each mouse received a single bolus of 1 mg murine TNF-α/kg body weight in a total volume of […] phosphate-buffered saline, via the tail vein. In this setting, mice received 15 min before TNF-α application a single intraperitoneal (i.p.) injection (total volume per mouse was 200 μl) of either 2.5% DMSO in PBS (vehicle) or 10 mg primidone/kg body weight (as indicated). Thereafter, the animals (n=16 per group) were placed under permanent observation and survival was checked every 15 min. Survival is depicted in a Kaplan-Meier plot (*** p<0.001).
# [2] = Kidney ischemia-reperfusion injury (IRI) mouse model; assay type: in vivo; conditions: mice
# Method: IRI is a clinically highly relevant model, since it is an unavoidable consequence after kidney transplantation and contributes to acute kidney injuries in various contexts (Müller et al., 2017). To test whether primidone could be used to suppress pathophysiological RIPK1-mediated cell death in renal IRI, mice were provided with a drinking solution containing either primidone at 2.875 mM or vehicle in the regular drinking water for five days prior to ischemia reperfusion surgery until the end of the reperfusion phase. Induction of murine kidney IRI was performed via a midline abdominal incision and bilateral renal pedicle clamping for 37 min using microaneurysm clamps (Aesculap Inc., Center Valley, Pa., USA). Throughout the surgical procedure, mice were kept under isoflurane narcosis and the body temperature was maintained at 36° C. to 37° C. by continuous monitoring using a temperature-controlled self-regulated heating system (Fine Science Tools, Heidelberg, Germany). After removal of the clamps, reperfusion of the kidneys was confirmed visually before the abdomen was closed in two layers using standard 6-0 sutures. After 48 h reperfusion, the mice were sacrificed, blood samples were taken by retrobulbar punction and organs were collected for analysis.
# For histology, kidney samples freshly obtained were fixed in 4.5% neutral-buffered formaldehyde and embedded in paraffin. Sections were dewaxed, rehydrated, and subjected to Masson trichrome staining according to routine protocols. Sections were dehydrated and mounted using DePeX mounting media (Serva). Stainings were evaluated in a blinded manner using a Leica Axiovert microscope and Axio Vision SE64 Rel 4.9. software (Leica Microsystems, Wetzlar, Germany). For data presentation, mild sharpening, contrast enhancement and gamma adjustment was performed. To analyze cell death of the tissue sections, a TdT-mediated dUTP nick end labelling (TUNEL) assay was performed using a fluorescence-based detection kit according to the manufacturer's instructions (G3250, Promega). Briefly, tissue sections were dewaxed, rehydrated, fixed in 4% paraformaldehyde and permeabilized with Proteinase K for 10 min at RT. Following this, the sections were equilibrated with the provided buffer for 10 min and labeled with the TdT reaction mix for 60 min at 37° C. in a humidified dark environment. […] Fluorescence micrographs (data not shown) were acquired with a 20× and 40× objective magnifications using a standard fluorescein filter set to view the green fluorescence at 520 nm with a Leica Axiovert microscope and Axio Vision SE64 Rel 4.9 software. Quantification of TUNEL-positive cells was performed manually by two blinded observers by evaluating 8 randomly selected fields of view per slide.
# [3] = primidone 2.875 mM in drinking water from 5 days before surgery, 37 min bilateral clamping, 48 h after reperfusion
smiles,measurement,setting,value
"CCC1(c2ccccc2)C(=O)NCNC1=O [primidone, 5-Ethyl-5-phenyl-1,3-diazinane-4,6-dione]","Inhibition of anti-Fas antibody induced cell death (caspase-dependent, RIPK1-independent)",Jurkat cells,no inhibitory effect
same,TNF-α-induced formation of complex I (RIPK1 binding to TNFR1),TNF-α-induced complex I,not influenced
same,Activation (phosphorylation) of NF-κB,NF-κB,Activation (phosphorylation) of NF-κB was detected
same,TNF-α-induced hypothermia,[1],significantly improves
same,Survival after TNF-α injection,"[1]; vs vehicle, p<0.001",significantly enhanced survival
same,Serum concentration of creatinine,[2]; [3],significantly reduced
same,Serum concentration of urea,[2]; [3],significantly reduced
same,TUNEL-positive cells (cells undergoing regulated cell death) in kidney sections,"[2]; primidone 2.875 mM in drinking water, 48 h reperfusion",significant reduced number of cells undergoing regulated cell death
same,Masson trichrome histology of renal outer medulla (tissue integrity),"[2]; primidone 2.875 mM in drinking water, 48 h reperfusion, data not shown",better preservation of tissue integrity
